What was measured:
white guinea pigs = experiment: Phototoxicity test (UVA irradiation); settings: for Evaluation (phototoxicity): 1%(w/v) solution, UVA 15 J/cm^2; for Phototoxic index: 50 μl of 1%(w/v) solution, UVA 320~380 nm 15 J/cm^2, observed 24, 48 and 72 hours
Method: Test was performed for twenty-five (25) of white guinea pigs whose backs were depilated and fixed. On both sides of the back, six(6) sites of 2 cm×2 cm, three(3) per side were sectioned. Right sites were compared as controls with no irradiation (UV non-irradiation sites) and left sites were irradiated (UV irradiation sites).
30 Minutes later, right sites were shielded with aluminum foil and UVA(320˜380 nm) was irradiated at a distance of about 10 cm therefrom using Waldmann to the final energy of 15 J/cm^2. After 24, 48 and 72 hours elapsed, skin response of guinea pig was observed. […] Evaluation was estimated for each elapsed time, i.e. 24, 48 and 72 hours and maximum scores were selected, to calculate irritation index by the following equation 3. Then, phototoxic index was calculated by the following equation 4. Irritation index=(ΣMaximum of erythema+ΣMaximum of edema)/Number of animals [Equation 3] Phototoxic index=(Irritation index of UV irradiation site)−(Irritation index of UV non-irradiation site) Equation 4]

collagenase = experiment: Inhibition of collagenase expression in human fibroblasts (ELISA kit); assay type: cell-based; settings: 10^−4M, 24 hours, serum-free medium, relative to control group = 100
Method: Human fibroblasts were seeded into 96-well microtiter plate at 5,000 cells per well and then cultured to 90% of growth in DMEM (Dulbecco's Modified Eagle's Media) supplemented with 2.5% fetal bovine serum. Then, the fibroblastes were cultured in serum-free DMEM for 24 hours and treated for 24 hours with 10^−4M of hydroxamic acid derivatives of Examples 1˜55, retinol or retinoic acid in serum-free medium, and then the culture fluid was collected.
(§1) For each culture fluid, collagenase production was measured with collagenase kit (commercialized by AmershamPharmacia Biotech). Firstly, the culture fluid was added to 96-well plate spread with primary collagenase antibody and then antigen-antibody reaction was performed in an incubator for 3 hours. Later, chromophore-conjugated secondary antibody was added to the 96-well plate and then reacted for 15 minutes. Then, color former was added thereto, to induce development at room temperature for 15 minutes. 1M of sulfuric acid was added to stop the reaction. […] The color density depends on the progress of the reaction. The absorbance of the yellow 96-well plate was measured at 405 nm using absorptiometer. Collagenase expression was calculated by the following equation 1. Herein, the absorbance of the culture fluid collected from the medium with no material treated was used as a control. Collagenase expression (%)=(Absorbance of test group with said material treated/Absorbance of control group with no material treated)×100 [Equation 1]
Collagenase expression was evaluated as a relative value, in consideration that the value of control group with no material treated is 100.

RARα = biological target: T1, RARα (Homo sapiens, UniProt P10276); experiment: RARE-luciferase reporter assay in transfected CV-1 cells (affinity to retinoic acid receptor), RARα; assay type: cell-based; settings: treated 24 hours at final concentration 10^−4M, control group 1000
T1 construct: expressed in transfected cells; host or cells: CV-1 cells (ATCC)
T1 sequence (P10276 1-462): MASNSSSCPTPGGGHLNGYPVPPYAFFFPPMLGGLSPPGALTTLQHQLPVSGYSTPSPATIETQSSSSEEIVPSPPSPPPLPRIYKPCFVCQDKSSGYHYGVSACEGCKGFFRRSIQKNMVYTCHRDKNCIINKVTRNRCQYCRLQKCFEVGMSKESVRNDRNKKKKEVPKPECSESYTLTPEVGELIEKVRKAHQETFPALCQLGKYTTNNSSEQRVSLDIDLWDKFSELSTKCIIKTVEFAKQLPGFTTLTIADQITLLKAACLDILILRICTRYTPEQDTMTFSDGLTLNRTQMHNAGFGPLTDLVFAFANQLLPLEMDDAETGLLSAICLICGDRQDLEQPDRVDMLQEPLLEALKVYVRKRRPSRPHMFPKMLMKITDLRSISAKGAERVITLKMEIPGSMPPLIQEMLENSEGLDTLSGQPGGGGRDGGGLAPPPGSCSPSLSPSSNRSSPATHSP
Excerpt: This example illustrates affinities of hydroxamic acid derivatives obtained in Examples 1 to 55 to retinoic acid receptor, in comparison with retinol and retinoic acid.
(§2) Receptor-expression plasmid, pECE-RARα and pECE-RARγ were engineered by the prior method (Mol. Cell. Biol. 1996, 16, 1138-1149). RARE-tk-Luc, i.e. RARE reporter was obtained by inserting RARE fragment from b-RARE-tk-CAT into pGL3 luciferase basic vector. CV-1 cells were obtained from ATCC (American Type Culture Collection).
CV-1 cells were seeded into 96-well microtiter plate at 5,000 cells per well and cultured in DMEM (Dulbecco's Modified Eagle's Media) supplemented with 2.5% fetal bovine serum. 24 Hours later, the cells were transfected with 10 ng of pECE-RARα, long of pECE-RARγ, 100 ng of reporter plasmid and 100 ng of β-galactosidase-expression vector, using LipofectaminPlus (GIBCO BRL, grand island, N.Y.). 24 Hours post-transfection, the cells were treated for 24 hours with hydroxamic acid derivatives of Examples 1˜55 or retinol at a final concentration of 10^−4M or with retinoic acid at a final concentration of 10^−5M, which is 10 times lower concentration than those of the former.

elastase = experiment: Inhibition of elastase expression in human fibroblasts (ELISA kit); assay type: cell-based; settings: 10^−4M, 24 hours, serum-free medium, relative to control group = 100
Method: as §1, with “elastase” for “collagenase”, “Elastase” for “Collagenase”, “2.” for “1.”, “2]” for “1]”
Elastase expression was evaluated as a relative value, in consideration that the value of control group with no material treated is 100.

RARγ = biological target: T2, RARγ (Homo sapiens, UniProt P13631); experiment: RARE-luciferase reporter assay in transfected CV-1 cells (affinity to retinoic acid receptor), RARγ; assay type: cell-based; settings: treated 24 hours at final concentration 10^−4M, control group 5000
T2 construct: expressed in transfected cells; host or cells: CV-1 cells (ATCC)
T2 sequence (P13631 1-454): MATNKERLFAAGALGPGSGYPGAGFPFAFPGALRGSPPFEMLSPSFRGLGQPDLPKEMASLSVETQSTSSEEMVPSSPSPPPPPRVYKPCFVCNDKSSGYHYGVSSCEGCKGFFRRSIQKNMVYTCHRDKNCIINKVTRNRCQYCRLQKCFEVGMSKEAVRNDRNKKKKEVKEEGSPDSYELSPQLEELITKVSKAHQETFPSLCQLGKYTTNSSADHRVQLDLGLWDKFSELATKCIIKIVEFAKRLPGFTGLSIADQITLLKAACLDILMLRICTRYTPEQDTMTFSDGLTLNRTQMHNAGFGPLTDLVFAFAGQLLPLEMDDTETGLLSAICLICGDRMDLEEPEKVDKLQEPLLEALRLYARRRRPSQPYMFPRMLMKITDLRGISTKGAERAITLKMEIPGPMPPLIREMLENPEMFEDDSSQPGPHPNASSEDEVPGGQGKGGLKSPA
Method: as §2
CV-1 cells were seeded into 96-well microtiter plate at 5,000 cells per well and cultured in DMEM (Dulbecco's Modified Eagle's Media) supplemented with 2.5% fetal bovine serum. 24 Hours later, the cells were transfected with 10 ng of pECE-RARα, long of pECE-RARγ, 100 ng of reporter plasmid and 100 ng of β-galactosidase-expression vector, using LipofectaminPlus (GIBCO BRL, grand island, N.Y.).

rabbits = experiment: Primary skin irritation test on animals (Draize P.I.I.); settings: depilated back; for P.I.I. (Primary Irritation Index): 0.5 ml of 1% solution in 1,3-butylene glycol:ethanol 7:3, observed 24 or 72 hours later; for Evaluation (skin irritation): 1% solution, according to Draize's P.I.I.
procollagen type I = experiment: Effect on collagen biosynthesis (procollagen type I ELISA) in human fibroblasts; assay type: cell-based; settings: 10^−4M, 24 hours, serum-free medium, relative to control group = 100
Method: Human fibroblasts were seeded into 24-well plate at 1×10^5 cells per well and then cultured to 90% of growth.
For each supernatant, procollagen production was measured with procollagen type I ELISA kit.

SMILES	Evaluation (phototoxicity) (white guinea pigs)	Phototoxic index (white guinea pigs)	Collagenase expression (%) (collagenase)	Luciferase activity RARα (RARα)	Elastase expression (%) (elastase)	Luciferase activity RARγ (RARγ)	P.I.I. (Primary Irritation Index) (rabbits)	Evaluation (skin irritation) (rabbits)	Collagen biosynthesis (%) (procollagen type I)
CC(C)(C)c1ccc(NC(=O)c2ccc(C(=O)NO)cc2)cc1 [Example 41, [4-(N-hydroxycarbamoyl)phenyl]-N-[4-tert-butylphenyl]carboxyamide]	No phototoxicity (lower value than 0.5, criterion value to be estimated as no phototoxicity)	0	88%	14300	78%	11211	0.367	No irritation	115%
CN(C(=O)C12CC3CC(CC(C3)C1)C2)c1ccc(C(=O)NO)cc1 [Example 21, N-[4-(N-hydroxycarbamoyl)phenyl]adamantyl-N-methylcarboxyamide]	No phototoxicity (lower value than 0.5, criterion value to be estimated as no phototoxicity)	0	69%	12500	78%	11200	0.345	No irritation	118%
Cc1ccc(N(C)C(=O)c2ccc(C(=O)NO)cc2)cc1C [Example 53, [4-(N-hydroxycarbamoyl)phenyl]-N-methyl-N-[3,4-dimethylphenyl]carboxyamide]	No phototoxicity (lower value than 0.5, criterion value to be estimated as no phototoxicity)	0	75%	14500	80%	12300	0.321	No irritation	122%
CCCCc1ccc(C(=O)N(C)c2ccc(C(=O)NO)cc2)cc1 [Example 18, N-[4-(N-hydroxycarbamoyl)phenyl]-N-methyl-[4-butylphenyl]carboxyamide]	No phototoxicity (lower value than 0.5, criterion value to be estimated as no phototoxicity)	0	78%	12900	79%	11400	0.321	No irritation	130%
CCc1ccc(C(=O)N(C)c2ccc(C(=O)NO)cc2)cc1 [Example 15, N-[4-(N-hydroxycarbamoyl)phenyl]-N-methyl-[4-ethylphenyl]carboxyamide]	No phototoxicity (lower value than 0.5, criterion value to be estimated as no phototoxicity)	0	79%	14500	76%	10400	0.789	No irritation	112%
CCCc1ccc(NC(=O)c2ccc(C(=O)NO)cc2)cc1 [Example 38, [4-(N-hydroxycarbamoyl)phenyl]-N-[4-propylphenyl]carboxyamide]	No phototoxicity (lower value than 0.5, criterion value to be estimated as no phototoxicity)	0	87%	17500	69%	10400	0.567	No irritation	109%
Cc1ccc(C(=O)Nc2ccc(CC(=O)NO)cc2)cc1 [Example 24, N-[4-(N-hydroxycarbamoylmethyl)phenyl][4-methylphenyl]carboxyamide]	No phototoxicity (lower value than 0.5, criterion value to be estimated as no phototoxicity)	0	76%	12100	82%	11210	0.321	No irritation	121%
